Laboratory results taken from ChEMBL document CHEMBL1130554, “BMS-200475, a novel carbocyclic 2-deoxyguanosine analog with potent and selective anti-hepatitis B virus activity in vitro” (Bioorg Med Chem Lett, 1997).

Key:
HepG2 [1] = test: Tested for the effective concentration required to inhibit HBV in HepG2.2.15 human liver cells; assay type: functional, cell-based
Hepatitis B virus [2] = test: Tested for cytotoxic concentration against hepatitis B virus; assay type: functional
WI-38 [3] = test: Tested for cytotoxic concentration against herpes simplex virus type 1 (HSV-1) in WI-38 cells; assay type: functional; details: Homo sapiens
Hepatitis B virus [4] = test: Tested effective dose against hepatitis B virus in vitro; assay type: functional; details: read-out: ED50 (the source's name)
WI-38 [5] = test: Tested for cytotoxic concentration against varicella zoster virus (VZV) in WI-38 cells; assay type: functional; details: Homo sapiens
WI-38 [6] = test: Tested for effective concentration required to inhibit varicella zoster virus (VZV) in WI-38 cells; 30-60; assay type: functional, cell-based; details: Homo sapiens
[7] = Tested for cytotoxic concentration against influenza virus in MDBK cells; assay type: functional; details: Bos taurus
CEM-SS [8] = test: Tested for cytotoxic concentration against human immunodeficiency virus (HIV) in CEM-SS cells; assay type: functional
CEM-SS [9] = test: Tested for effective concentration to inhibit human immunodeficiency virus (HIV) in CEM-SS cells; assay type: functional, cell-based
[10] = Tested for effective concentration required to inhibit of influenza virus in MDBK cells; assay type: functional, cell-based, Bos taurus
HFF = test: Tested for effective concentration required to inhibit human cytomegalovirus (HCMV) in HFF cells; assay type: functional, cell-based
WI-38 [11] = test: Tested for effective concentration required to inhibit herpes simplex virus type 1 (HSV-1) in WI-38 cells; assay type: functional, cell-based; details: Homo sapiens
HepG2 [12] = test: Tested for the cytotoxicity against hepatitis B virus (HBV) in HepG2.2.15 cells; assay type: functional; details: Homo sapiens

With `C=C1[C@H](CO)[C@@H](O)C[C@@H]1n1cc(C)c(=O)[nH]c1=O` the EC50 (HepG2 [1]) was > 100 µM.

Compound `C=C1[C@H](CO)[C@@H](O)C[C@@H]1n1cc(I)c(=O)[nH]c1=O` has an EC50 (HepG2 [1]) of 10.5 µM.

Compound `C=C1[C@H](CO)[C@@H](O)C[C@@H]1n1cnc2c(N)ncnc21` has an EC50 (HepG2 [1]) of 0.128 µM.

Compound `Nc1nc(O)c2ncn([C@@H]3C[C@H](CO)[C@@H](O)C3)c2n1` has an EC50 (HepG2 [1]) of 0.05 µM.

In the case of `C=C1[C@@H](CO)[C@H](O)C[C@H]1n1cnc2c(O)nc(N)nc21`, the EC50 (HepG2 [1]) is reported as 100 µM.

With `C=C1[C@H](CO)[C@@H](O)C[C@@H]1n1cnc2c(=O)[nH]c(N)nc21` [ENTECAVIR] the CC50 (Hepatitis B virus [2]) was 21 µM, the CC50 (WI-38 [3]) was > 90 µM and the EC50 (HepG2 [1]) was 0.003 µM. The EC50 (Hepatitis B virus [4]) was 0.003 µM, the CC50 (WI-38 [5]) was 120 µM and the EC50 (WI-38 [6]) was 30 µM. For the same compound, the CC50 [7] was 78 µM, the CC50 (CEM-SS [8]) was 21 µM and the EC50 (CEM-SS [9]) was > 10 µM. The EC50 [10] was > 80 µM, the EC50 (HFF) was 15 µM and the EC50 (WI-38 [11]) was ≥ 32 µM. It also gave a CC50 (HepG2 [12]) of 30 µM.

`Nc1ccn([C@@H]2CS[C@H](CO)O2)c(=O)n1` [LAMIVUDINE] gave an EC50 (HepG2 [1]) of 0.2 µM.

With `Nc1nc(O)c2ncn(CCC(CO)CO)c2n1` [PENCICLOVIR] the EC50 (HepG2 [1]) was ≥ 100 µM.
